Literature values in patent US10227338B2, “Substituted benzenesulfonamides as sodium channel blockers” (Daewoong Pharmaceutical Co., Ltd., priority 2015, dated 2019).

Tested on: neuropathic pain

NCC1(CC(=O)O)CCCCC1 [gabapentin]
effective for % of the patients: 60%
